Among the data in ChEMBL document CHEMBL6109174, “The Prosperity and Adversity of M4 Muscarinic Acetylcholine Receptor Activators in the Treatment of Neuropsychiatric Disorders” (J Med Chem, 2025) are EC50 values, retold here.

The first experiment has as its target T1, Muscarinic acetylcholine receptor M2 (Homo sapiens, UniProt P08172).
T1 sequence (P08172 whole entry): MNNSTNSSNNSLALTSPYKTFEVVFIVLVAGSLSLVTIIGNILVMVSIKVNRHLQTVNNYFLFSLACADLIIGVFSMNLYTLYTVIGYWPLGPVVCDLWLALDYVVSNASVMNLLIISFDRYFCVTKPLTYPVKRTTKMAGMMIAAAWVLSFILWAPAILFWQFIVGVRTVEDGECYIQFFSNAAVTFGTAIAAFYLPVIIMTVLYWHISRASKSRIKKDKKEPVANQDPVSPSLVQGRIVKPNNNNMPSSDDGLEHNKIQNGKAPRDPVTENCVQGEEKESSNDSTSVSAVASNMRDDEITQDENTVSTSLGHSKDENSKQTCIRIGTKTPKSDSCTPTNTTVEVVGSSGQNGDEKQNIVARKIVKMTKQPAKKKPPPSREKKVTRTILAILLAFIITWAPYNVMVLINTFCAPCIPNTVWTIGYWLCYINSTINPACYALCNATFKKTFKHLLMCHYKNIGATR
The experiment can be described thus: Agonist activity at human M2 receptor. The experiment is classed as functional.
By EC50 is commonly meant the concentration needed to bring the measured effect to its halfway point. Compound `COC(=O)N1CCC(N2CCC(n3c(=O)n(C)c4ccccc43)CC2)CC1` registered an EC50 of 135 nM.

A further experiment concerns the target T2, Muscarinic acetylcholine receptor M4 (Homo sapiens, UniProt P08173).
T2 sequence (P08173 whole entry): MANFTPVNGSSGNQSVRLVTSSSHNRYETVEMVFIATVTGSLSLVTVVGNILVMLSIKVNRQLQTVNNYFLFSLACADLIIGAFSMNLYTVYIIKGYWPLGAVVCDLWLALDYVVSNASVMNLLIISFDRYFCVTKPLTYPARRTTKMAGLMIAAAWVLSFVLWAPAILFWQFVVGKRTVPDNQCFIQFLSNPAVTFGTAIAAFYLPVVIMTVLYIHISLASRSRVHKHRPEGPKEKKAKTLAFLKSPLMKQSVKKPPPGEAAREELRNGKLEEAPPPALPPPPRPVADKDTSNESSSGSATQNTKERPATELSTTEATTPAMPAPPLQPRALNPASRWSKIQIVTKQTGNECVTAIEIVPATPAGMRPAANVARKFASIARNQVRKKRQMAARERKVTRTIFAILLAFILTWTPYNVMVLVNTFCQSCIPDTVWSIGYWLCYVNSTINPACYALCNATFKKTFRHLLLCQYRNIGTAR
Nature of the experiment: Agonist activity at human M4 receptor. It counts as functional.
On to `COc1nc2sc(C(=O)NC3CC3)c(N)c2c(C)c1Cl`, for which the EC50 was found to be 39 nM.
On the same count and under the same terms, the value for `CCNC(=O)c1sc2nc(OC)c(Cl)c(C)c2c1N` was 200 nM.

The target in a further experiment is T2, Muscarinic acetylcholine receptor M4. Nature of the experiment: Agonist activity at human recombinant M4 muscarinic acetylcholine receptor assessed as calcium mobilization by FLIPR analysis. The experiment is classed as functional.
With `Cc1cc(C)c2c(N)c(C(=O)NCc3ccccc3)sc2n1`, the EC50 was determined as 1.3 nM.
Turning to `Cc1cc(C)c2c(N)c(C(=O)NCc3ccco3)sc2n1`, the EC50 stood at 395 nM.
Still for that read-out and setting: the value for `Cc1cc(C)c2c(N)c(C(=O)NCc3ccc(Cl)cc3)sc2n1` was 400 nM; that for `Cc1nc2sc(C(=O)NCc3ccncc3)c(N)c2c(C)c1Cl` was 77 nM; that for `Cc1cc(C)c2c(N)c(C(=O)NCc3ccc4c(c3)OCO4)sc2n1` was 403 nM.
On the same count and under the same terms, with `Cc1nnc2sc(C(=O)NCc3ccc(-c4ccnc(F)c4)cc3)c(N)c2c1C` the figure was 91 nM.
